Laboratory results as given in the supplement of paper PMC10331698.
± gives the standard deviation of the averaged measurements.

Key:
Methotrexate = compound: CN(Cc1cnc2nc(N)nc(N)c2n1)c1ccc(C(=O)N[C@@H](CCC(=O)O)C(=O)O)cc1 [Methotrexate]; experiment: level (log10 ratio to DMSO vehicle control); higher = higher biomarker level / cell amount than vehicle control; settings: in DMSO
Method: (§1)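 BioMAP Diversity Plus panel of 12 human primary cell co-culture systems (3C, 4H, LPS, SAg, BT, BF4T, BE3C, CASM3C, HDF3CGF, KF3CT, MyoF, Mphg). Compounds were added 1 h before stimulation and left for 24 h (MyoF 48 h; BT 72 h for soluble read-outs or 6 d for IgG). Biomarkers were read by ELISA, cytotoxicity by SRB, PBMC viability and proliferation by Alamar Blue. Each well value was divided by the mean of 8 DMSO control wells on the same plate and log10 transformed; duplicate blinded samples were tested at 4 concentrations.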

[1] = compound: O=P(O)(O)CCC(F)(F)C(F)(F)C(F)(F)C(F)(F)C(F)(F)C(F)(F)F [2-(Perfluorohexyl)ethylphosphonic acid]; experiment: as above; settings: in DMSO
Method: as §1

Test System	level (log10) (Methotrexate; 1500 nM)	level (log10) (Methotrexate; 4400 nM)	level (log10) (Methotrexate; 13000 nM)	level (log10) (Methotrexate; 40000 nM)	level (log10) ([1]; 6700 nM)	level (log10) ([1]; 20000 nM)	level (log10) ([1]; 60000 nM)
BF4T:tPA	0.018 ± 0.0071	-0.0155 ± 0.011	0.005 ± 0.014	0.0155 ± 0.018	-0.059 ± 0.0014	-0.067 ± 0.0057	-0.0615 ± 0.064
BF4T:IL-1alpha	0.0145 ± 0.00071	-0.037 ± 0.0042	-0.012 ± 0.031	0.0045 ± 0.0021	0.0005 ± 0.015	-0.014 ± 0.013	0.002 ± 0.042
LPS:M-CSF	0.0235 ± 0.005	0.0035 ± 0.019	0.0235 ± 0.0035	-0.0065 ± 0.03	-0.0175 ± 0.074	0.0055 ± 0.043	0.0255 ± 0.019
BF4T:MMP-1	0.0195 ± 0.015	0.0005 ± 0.016	-0.012 ± 0.03	0.0015 ± 0.011	-0.0045 ± 0.0092	-0.004	0.0035 ± 0.026
LPS:CD141/Thrombomodulin	0.016 ± 0.03	-0.0155 ± 0.036	0.0085 ± 0.015	-0.0025 ± 0.023	-0.004 ± 0.11	-0.0055 ± 0.11	0.0315 ± 0.032
BT:sIL-6	0.0125 ± 0.013	-0.034 ± 0.1	-0.0095 ± 0.059	-0.2 ± 0.033	0.0645 ± 0.013	-0.007 ± 0.0042	0.0015 ± 0.025
BT:sIL-2	0.0155 ± 0.016	-0.0845 ± 0.11	0.0085 ± 0.035	-0.075 ± 0.035	0.076 ± 0.013	0.023 ± 0.0071	0.0355 ± 0.11
BF4T:CD106/VCAM-1	0.014 ± 0.024	0.0165 ± 0.029	0.0245 ± 0.016	0.0245 ± 0.011	-0.0195 ± 0.03	-0.0165 ± 0.016	0.0055 ± 0.047
4H:CD87/uPAR	0.0245 ± 0.029	-0.014 ± 0.031	-0.0105 ± 0.033	0.0185 ± 0.03	-0.0345 ± 0.018	-0.0165 ± 0.015	-0.0495 ± 0.011
LPS:sTNF-alpha	0.0165 ± 0.033	0 ± 0.079	-0.045 ± 0.024	-0.0525 ± 0.069	0.008 ± 0.0085	0.0105 ± 0.026	0.007 ± 0.0042
BF4T:CXCL8/IL-8	0.035 ± 0.027	0.027 ± 0.071	0.041 ± 0.057	0.0365 ± 0.12	-0.0405 ± 0.00071	-0.0595 ± 0.0064	-0.034 ± 0.0085
BF4T:PAI-I	-0.002 ± 0.014	-0.0075 ± 0.0078	-0.0065 ± 0.0078	-0.002 ± 0.0071	-0.0075 ± 0.0092	-0.0115 ± 0.0035	-0.016 ± 0.038
BE3C:EGFR	0.023 ± 0.028	0.002 ± 0.013	0.0085 ± 0.0092	0.0155 ± 0.037	-0.0045 ± 0.0021	-0.015 ± 0.014	0.0005 ± 0.022
3C:CD87/uPAR	0.0005 ± 0.0092	0.001 ± 0.047	0.01 ± 0.071	-0.0095 ± 0.013	0.0365 ± 0.03	0.0125 ± 0.00071	-0.0385 ± 0.0092
SAg:CCL2/MCP-1	-0.0055 ± 0.12	-0.037 ± 0.028	-0.009 ± 0.024	-0.0075 ± 0.05	0.0075 ± 0.0092	-0.006 ± 0.016	0.041
BE3C:CD54/ICAM-1	0.021 ± 0.014	-0.002 ± 0.013	0.013 ± 0.031	0.0065 ± 0.035	-0.01 ± 0.0028	-0.02 ± 0.021	-0.0085 ± 0.03
3C:CXCL9/MIG	0.0075 ± 0.0092	0.001 ± 0.016	-0.0015 ± 0.005	0.0145 ± 0.0064	-0.004 ± 0.0071	-0.003 ± 0.0014	0.01 ± 0.025

Test System	level (log10) (Methotrexate; 1500 nM)	level (log10) (Methotrexate; 4400 nM)	level (log10) (Methotrexate; 13000 nM)	level (log10) (Methotrexate; 40000 nM)	level (log10) ([1]; 6700 nM)	level (log10) ([1]; 20000 nM)	level (log10) ([1]; 60000 nM)
SAg:CXCL9/MIG	0.0095 ± 0.0035	0 ± 0.035	0.006 ± 0.034	-0.003 ± 0.027	0.0025 ± 0.0035	-0.012	0.0005 ± 0.022
SAg:CD40	-0.02 ± 0.0042	-0.0525 ± 0.018	-0.0055 ± 0.079	-0.0305 ± 0.088	0.007 ± 0.0028	0.0015 ± 0.00071	-0.026 ± 0.0099
BT:sIL-17F	-0.039 ± 0.11	-0.02 ± 0.025	-0.064 ± 0.088	-0.179 ± 0.075	0.0655 ± 0.084	0.008 ± 0.0014	-0.0175 ± 0.069
BT:sIL-17A	-0.0735 ± 0.14	-0.02 ± 0.058	-0.002 ± 0.11	-0.197 ± 0.18	0.018 ± 0.11	-0.07 ± 0.017	-0.135 ± 0.059
BF4T:CD90	0.001 ± 0.0014	-0.0145 ± 0.0035	-0.006 ± 0.016	0.0235 ± 0.012	-0.0185 ± 0.023	-0.0165 ± 0.005	-0.008 ± 0.031
4H:CCL2/MCP-1	-0.02 ± 0.011	-0.035 ± 0.02	-0.0215 ± 0.023	0.0105 ± 0.0021	-0.0295 ± 0.0092	-0.031 ± 0.025	-0.0215 ± 0.054
BT:Secreted IgG	-1.302 ± 0.011	-1.31 ± 0.079	-1.33	-1.26	0.0125 ± 0.0021	0.002 ± 0.0099	-0.046 ± 0.047
BF4T:CCL2/MCP-1	0.0115 ± 0.022	0.0135 ± 0.0035	-0.022 ± 0.0028	0.0055 ± 0.029	0.001 ± 0.0028	0.0015 ± 0.023	-0.009 ± 0.0028
BE3C:CXCL11/I-TAC	0.017 ± 0.027	0.0135 ± 0.029	0.0225 ± 0.015	0.016 ± 0.031	-0.0205 ± 0.0078	-0.0235 ± 0.0064	-0.0415 ± 0.032
3C:CXCL8/IL-8	0.035 ± 0.016	-0.0015 ± 0.059	0.0055 ± 0.023	0.042 ± 0.093	-0.0115 ± 0.05	-0.0035 ± 0.0021	0.0545 ± 0.03
SAg:CD62E/E-Selectin	0.007 ± 0.011	-0.0015 ± 0.032	0.019 ± 0.016	-0.0075 ± 0.018	0.004 ± 0.0042	0.0015 ± 0.0021	0.0635 ± 0.021
BE3C:CXCL8/IL-8	0.0795 ± 0.069	0.035 ± 0.089	0.053 ± 0.057	0.048 ± 0.11	-0.064 ± 0.017	-0.0635 ± 0.0064	-0.0555 ± 0.06
BE3C:HLA-DR	-0.0105 ± 0.00071	-0.0235 ± 0.0064	0.013 ± 0.011	-0.0145 ± 0.022	-0.0045 ± 0.018	-0.012 ± 0.021	0.01 ± 0.038
SAg:SRB	-0.002 ± 0.0042	-0.007 ± 0.0014	0.003 ± 0.0071	-0.0015 ± 0.0021	-0.008 ± 0.011	0.0025 ± 0.013	-0.0355 ± 0.035
LPS:SRB	-0.0005 ± 0.013	0.001	0.0015 ± 0.00071	0.005 ± 0.011	-0.003 ± 0.0057	-0.006 ± 0.0028	-0.023 ± 0.021
BE3C:CD87/uPAR	0.0225 ± 0.005	-0.0145 ± 0.011	0 ± 0.016	0.0145 ± 0.015	-0.035 ± 0.065	-0.029 ± 0.047	-0.0125 ± 0.12
SAg:CD69	-0.001 ± 0.0085	-0.033 ± 0.024	-0.0185 ± 0.061	-0.003 ± 0.04	-0.004 ± 0.025	-0.008 ± 0.02	0.009 ± 0.03
